Assay results taken from ChEMBL document CHEMBL3885881, “DrugMatrix”.

Species on record: Rattus norvegicus
Assay: DrugMatrix - Regimen: Daily Repeat
Format: toxicity, organism-based, Sprague-Dawley
Parameters: regimen Daily Repeat, gender Male, age 6-8 weeks
Details: in vivo, po, route oral GAVAGE, vehicle .5 % CMC; for ABSOLUTE LYMPHOCYTE / ABSOLUTE MONOCYTE / ABSOLUTE SEGMENTED NEUTROPHIL / BASOPHIL / EOSINOPHIL / ERYTHROCYTE COUNT / HEMATOCRIT / HEMOGLOBIN / LEUKOCYTE COUNT / LYMPHOCYTE / MEAN CORPUSCULAR HEMOGLOBIN / MEAN CORPUSCULAR HEMOGLOBIN CONCENTRATION / MEAN CORPUSCULAR VOLUME / MONOCYTE / NEUTROPHIL / NUCLEATED RED BLOOD CELLS / PLATELET COUNT / ABSOLUTE BASOPHIL / ABSOLUTE EOSINOPHIL: tissue Blood; for ALANINE AMINOTRANSFERASE / ALBUMIN / ALKALINE PHOSPHATASE / ASPARTATE AMINOTRANSFERASE / BLOOD UREA NITROGEN / CARBON DIOXIDE / CHLORIDE / CHOLESTEROL / CREATINE PHOSPHOKINASE / CREATININE / GLUCOSE / LACTATE DEHYDROGENASE / LIPASE / PHOSPHORUS / POTASSIUM / SODIUM / TOTAL BILIRUBIN / TOTAL PROTEIN / URIC ACID: tissue Plasma
[1] = 11 mg/kg, 120 h, dose level Low, time 5 day
[2] = 110 mg/kg, 72 h, dose level M1, time 3 day
[3] = 110 mg/kg, 120 h, dose level M1, time 5 day

COc1ccc2c3c1O[C@H]1C[C@@H](O)C=C[C@@]31CCN(C)C2 [GALANTAMINE]
ABSOLUTE LYMPHOCYTE [1]: 13451.33 CELLS/uL
ABSOLUTE MONOCYTE [1]: 58.33 CELLS/uL
ABSOLUTE SEGMENTED NEUTROPHIL [1]: 1323.67 CELLS/uL
BASOPHIL [1]: 0%
EOSINOPHIL [1]: 0%
ERYTHROCYTE COUNT [1]: 5.81 x10E6/uL
HEMATOCRIT [1]: 35.73%
HEMOGLOBIN [1]: 14.27 G/DL
LEUKOCYTE COUNT [1]: 14.83 x10E3/uL
LYMPHOCYTE [1]: 90.33%
MEAN CORPUSCULAR HEMOGLOBIN [1]: 24.57 pg
MEAN CORPUSCULAR HEMOGLOBIN CONCENTRATION [1]: 39.93 G/DL
MEAN CORPUSCULAR VOLUME [1]: 61.57 fL
MONOCYTE [1]: 0.33%
NEUTROPHIL [1]: 9.33%
NUCLEATED RED BLOOD CELLS [1]: 0 /100WBC
PLATELET COUNT [1]: 1163.33 x10E3/uL
ALANINE AMINOTRANSFERASE [1]: 48.67 u/L
ALBUMIN [1]: 4.27 G/DL
ALKALINE PHOSPHATASE [1]: 399 u/L
ASPARTATE AMINOTRANSFERASE [1]: 74.67 u/L
BLOOD UREA NITROGEN [1]: 20.33 mg/dL
CARBON DIOXIDE [1]: 28.33 mmol/L
CHLORIDE [1]: 99.67 MEQ/L
CHOLESTEROL [1]: 76.67 mg/dL
CREATINE PHOSPHOKINASE [1]: 330.67 u/L
CREATININE [1]: 0.19 mg/dL
GLUCOSE [1]: 158.67 mg/dL
LACTATE DEHYDROGENASE [1]: 135 u/L
LIPASE [1]: 10 u/L
PHOSPHORUS [1]: 12.37 mg/dL
POTASSIUM [1]: 6.09 MEQ/L
SODIUM [1]: 144.2 MEQ/L
TOTAL BILIRUBIN [1]: 0.23 mg/dL
TOTAL PROTEIN [1]: 6.17 G/DL
URIC ACID [1]: 1.33 mg/dL
ABSOLUTE BASOPHIL [2]: 0 CELLS/uL
ABSOLUTE EOSINOPHIL [2]: 37.33 CELLS/uL
ABSOLUTE LYMPHOCYTE [2]: 14169 CELLS/uL
ABSOLUTE MONOCYTE [2]: 124.67 CELLS/uL
ABSOLUTE SEGMENTED NEUTROPHIL [2]: 769 CELLS/uL
BASOPHIL [2]: 0%
EOSINOPHIL [2]: 0.33%
ERYTHROCYTE COUNT [2]: 5.81 x10E6/uL
HEMATOCRIT [2]: 36.57%
HEMOGLOBIN [2]: 14.27 G/DL
LEUKOCYTE COUNT [2]: 15.1 x10E3/uL
LYMPHOCYTE [2]: 94%
MEAN CORPUSCULAR HEMOGLOBIN [2]: 24.57 pg
MEAN CORPUSCULAR HEMOGLOBIN CONCENTRATION [2]: 39 G/DL
MEAN CORPUSCULAR VOLUME [2]: 62.97 fL
MONOCYTE [2]: 0.67%
NEUTROPHIL [2]: 5%
NUCLEATED RED BLOOD CELLS [2]: 0 /100WBC
PLATELET COUNT [2]: 1366 x10E3/uL
ALANINE AMINOTRANSFERASE [2]: 64.33 u/L
ALBUMIN [2]: 4.03 G/DL
ALKALINE PHOSPHATASE [2]: 411.33 u/L
ASPARTATE AMINOTRANSFERASE [2]: 91 u/L
BLOOD UREA NITROGEN [2]: 16 mg/dL
CARBON DIOXIDE [2]: 33 mmol/L
CHLORIDE [2]: 102.67 MEQ/L
CHOLESTEROL [2]: 70.67 mg/dL
CREATINE PHOSPHOKINASE [2]: 247.67 u/L
CREATININE [2]: 0.2 mg/dL
GLUCOSE [2]: 131.33 mg/dL
LACTATE DEHYDROGENASE [2]: 252 u/L
LIPASE [2]: 8.33 u/L
PHOSPHORUS [2]: 11.67 mg/dL
POTASSIUM [2]: 7.08 MEQ/L
SODIUM [2]: 144.3 MEQ/L
TOTAL BILIRUBIN [2]: 0.23 mg/dL
TOTAL PROTEIN [2]: 5.5 G/DL
URIC ACID [2]: 1.43 mg/dL
ABSOLUTE BASOPHIL [3]: 0 CELLS/uL
ABSOLUTE EOSINOPHIL [3]: 67.67 CELLS/uL
ABSOLUTE LYMPHOCYTE [3]: 15229.33 CELLS/uL
ABSOLUTE MONOCYTE [3]: 0 CELLS/uL
ABSOLUTE SEGMENTED NEUTROPHIL [3]: 1603 CELLS/uL
BASOPHIL [3]: 0%
EOSINOPHIL [3]: 0.33%
ERYTHROCYTE COUNT [3]: 5.71 x10E6/uL
HEMATOCRIT [3]: 35.4%
HEMOGLOBIN [3]: 14.07 G/DL
LEUKOCYTE COUNT [3]: 16.9 x10E3/uL
LYMPHOCYTE [3]: 90%
MEAN CORPUSCULAR HEMOGLOBIN [3]: 24.67 pg
MEAN CORPUSCULAR HEMOGLOBIN CONCENTRATION [3]: 39.77 G/DL
MEAN CORPUSCULAR VOLUME [3]: 62.03 fL
MONOCYTE [3]: 0%
NEUTROPHIL [3]: 9.67%
NUCLEATED RED BLOOD CELLS [3]: 0 /100WBC
PLATELET COUNT [3]: 1316.67 x10E3/uL
ALANINE AMINOTRANSFERASE [3]: 48 u/L
ALBUMIN [3]: 4.1 G/DL
ALKALINE PHOSPHATASE [3]: 401.67 u/L
ASPARTATE AMINOTRANSFERASE [3]: 99 u/L
BLOOD UREA NITROGEN [3]: 14.33 mg/dL
CARBON DIOXIDE [3]: 24.67 mmol/L
CHLORIDE [3]: 101.67 MEQ/L
CHOLESTEROL [3]: 60.33 mg/dL
CREATINE PHOSPHOKINASE [3]: 541 u/L
CREATININE [3]: 0.27 mg/dL
GLUCOSE [3]: 132.67 mg/dL
LACTATE DEHYDROGENASE [3]: 653 u/L
LIPASE [3]: 11 u/L
PHOSPHORUS [3]: 13 mg/dL
POTASSIUM [3]: 6.92 MEQ/L
SODIUM [3]: 143.03 MEQ/L
TOTAL BILIRUBIN [3]: 0.23 mg/dL
TOTAL PROTEIN [3]: 5.77 G/DL
URIC ACID [3]: 1.8 mg/dL
